Assay results: ChEMBL document CHEMBL3885881, “DrugMatrix”

Species: Rattus norvegicus
Test: DrugMatrix - Regimen: Daily Repeat
Format: toxicity, organism-based, Sprague-Dawley
Design: regimen Daily Repeat, gender Male, age 6-8 weeks
Conditions: in vivo, po, route oral GAVAGE, vehicle .5 % CMC; for ABSOLUTE BASOPHIL / ABSOLUTE EOSINOPHIL / ABSOLUTE LYMPHOCYTE / ABSOLUTE SEGMENTED NEUTROPHIL / BASOPHIL / EOSINOPHIL / ERYTHROCYTE COUNT / HEMATOCRIT / LYMPHOCYTE / MEAN CORPUSCULAR HEMOGLOBIN / MEAN CORPUSCULAR HEMOGLOBIN CONCENTRATION / MEAN CORPUSCULAR VOLUME / MONOCYTE / NEUTROPHIL / NUCLEATED RED BLOOD CELLS / PLATELET COUNT / LEUKOCYTE COUNT: tissue Blood; for ALANINE AMINOTRANSFERASE / ALBUMIN / ALKALINE PHOSPHATASE / ASPARTATE AMINOTRANSFERASE / BLOOD UREA NITROGEN / CARBON DIOXIDE / CHLORIDE / CHOLESTEROL / CREATINE PHOSPHOKINASE / CREATININE / GLUCOSE / LACTATE DEHYDROGENASE / PHOSPHORUS / POTASSIUM / SODIUM / TOTAL BILIRUBIN / TOTAL PROTEIN / URIC ACID: tissue Plasma
[1] = 0 mg/kg, 72 h, dose level Control, time 3 day
[2] = 0 mg/kg, 120 h, dose level Control, time 5 day
[3] = 3 mg/kg, 72 h, dose level Low, time 3 day
[4] = 3 mg/kg, 120 h, dose level Low, time 5 day

CCN(CC)CCOc1ccc(/C(=C(/Cl)c2ccccc2)c2ccccc2)cc1 [ENCLOMIPHENE]
ABSOLUTE BASOPHIL [1]: 0 CELLS/uL | ABSOLUTE EOSINOPHIL [1]: 222.83 CELLS/uL | ABSOLUTE LYMPHOCYTE [1]: 14453 CELLS/uL | ABSOLUTE SEGMENTED NEUTROPHIL [1]: 1490.83 CELLS/uL | BASOPHIL [1]: 0% | EOSINOPHIL [1]: 1.33% | ERYTHROCYTE COUNT [1]: 5.76 x10E6/uL | HEMATOCRIT [1]: 36.52% | LYMPHOCYTE [1]: 89.33% | MEAN CORPUSCULAR HEMOGLOBIN [1]: 23.37 pg | MEAN CORPUSCULAR HEMOGLOBIN CONCENTRATION [1]: 36.85 G/DL | MEAN CORPUSCULAR VOLUME [1]: 63.47 fL | MONOCYTE [1]: 0% | NEUTROPHIL [1]: 9.33% | NUCLEATED RED BLOOD CELLS [1]: 0 /100WBC | PLATELET COUNT [1]: 1239.5 x10E3/uL | ALANINE AMINOTRANSFERASE [1]: 43.83 u/L | ALBUMIN [1]: 4.27 G/DL | ALKALINE PHOSPHATASE [1]: 398.83 u/L | ASPARTATE AMINOTRANSFERASE [1]: 81.17 u/L | BLOOD UREA NITROGEN [1]: 17.67 mg/dL | CARBON DIOXIDE [1]: 27.5 mmol/L | CHLORIDE [1]: 99.17 MEQ/L | CHOLESTEROL [1]: 74 mg/dL | CREATINE PHOSPHOKINASE [1]: 331.5 u/L | CREATININE [1]: 0.2 mg/dL | GLUCOSE [1]: 171.33 mg/dL | LACTATE DEHYDROGENASE [1]: 241.67 u/L | PHOSPHORUS [1]: 12.25 mg/dL | POTASSIUM [1]: 6.33 MEQ/L | SODIUM [1]: 141.28 MEQ/L | TOTAL BILIRUBIN [1]: 0.15 mg/dL | TOTAL PROTEIN [1]: 5.98 G/DL | URIC ACID [1]: 1.63 mg/dL | ABSOLUTE BASOPHIL [2]: 0 CELLS/uL | ABSOLUTE EOSINOPHIL [2]: 148.67 CELLS/uL | ABSOLUTE LYMPHOCYTE [2]: 16020.5 CELLS/uL | ABSOLUTE SEGMENTED NEUTROPHIL [2]: 1468.33 CELLS/uL | BASOPHIL [2]: 0% | EOSINOPHIL [2]: 1% | ERYTHROCYTE COUNT [2]: 5.78 x10E6/uL | HEMATOCRIT [2]: 35.77% | LEUKOCYTE COUNT [2]: 17.67 x10E3/uL | LYMPHOCYTE [2]: 90.5% | MEAN CORPUSCULAR HEMOGLOBIN [2]: 23.22 pg | MEAN CORPUSCULAR HEMOGLOBIN CONCENTRATION [2]: 37.47 G/DL | MEAN CORPUSCULAR VOLUME [2]: 61.92 fL | MONOCYTE [2]: 0.17% | NEUTROPHIL [2]: 8.33% | NUCLEATED RED BLOOD CELLS [2]: 0.17 /100WBC | PLATELET COUNT [2]: 1255.5 x10E3/uL | ALANINE AMINOTRANSFERASE [2]: 46.5 u/L | ALBUMIN [2]: 4.38 G/DL | ALKALINE PHOSPHATASE [2]: 336 u/L | ASPARTATE AMINOTRANSFERASE [2]: 76.5 u/L | BLOOD UREA NITROGEN [2]: 20 mg/dL | CARBON DIOXIDE [2]: 27.5 mmol/L | CHLORIDE [2]: 101 MEQ/L | CHOLESTEROL [2]: 71.33 mg/dL | CREATINE PHOSPHOKINASE [2]: 231.83 u/L | CREATININE [2]: 0.37 mg/dL | GLUCOSE [2]: 168.83 mg/dL | LACTATE DEHYDROGENASE [2]: 174 u/L | PHOSPHORUS [2]: 11.48 mg/dL | POTASSIUM [2]: 6.82 MEQ/L | SODIUM [2]: 143.8 MEQ/L | TOTAL BILIRUBIN [2]: 0.2 mg/dL | TOTAL PROTEIN [2]: 5.98 G/DL | URIC ACID [2]: 1.83 mg/dL | ABSOLUTE BASOPHIL [3]: 0 CELLS/uL | ABSOLUTE EOSINOPHIL [3]: 54.33 CELLS/uL | ABSOLUTE LYMPHOCYTE [3]: 13020.67 CELLS/uL | ABSOLUTE SEGMENTED NEUTROPHIL [3]: 996.33 CELLS/uL | BASOPHIL [3]: 0% | EOSINOPHIL [3]: 0.33% | ERYTHROCYTE COUNT [3]: 5.87 x10E6/uL | HEMATOCRIT [3]: 35.93% | LEUKOCYTE COUNT [3]: 14.23 x10E3/uL | LYMPHOCYTE [3]: 91.67% | MEAN CORPUSCULAR HEMOGLOBIN [3]: 24.23 pg | MEAN CORPUSCULAR HEMOGLOBIN CONCENTRATION [3]: 39.57 G/DL | MEAN CORPUSCULAR VOLUME [3]: 61.2 fL | MONOCYTE [3]: 1% | NEUTROPHIL [3]: 7% | NUCLEATED RED BLOOD CELLS [3]: 0 /100WBC | PLATELET COUNT [3]: 1129 x10E3/uL | ALANINE AMINOTRANSFERASE [3]: 57.33 u/L | ALBUMIN [3]: 4.5 G/DL | ALKALINE PHOSPHATASE [3]: 614.33 u/L | ASPARTATE AMINOTRANSFERASE [3]: 88 u/L | BLOOD UREA NITROGEN [3]: 13.67 mg/dL | CARBON DIOXIDE [3]: 25.33 mmol/L | CHLORIDE [3]: 105.67 MEQ/L | CHOLESTEROL [3]: 37 mg/dL | CREATINE PHOSPHOKINASE [3]: 178 u/L | CREATININE [3]: 0.16 mg/dL | GLUCOSE [3]: 148 mg/dL | LACTATE DEHYDROGENASE [3]: 196.67 u/L | PHOSPHORUS [3]: 13.37 mg/dL | POTASSIUM [3]: 6.75 MEQ/L | SODIUM [3]: 151.6 MEQ/L | TOTAL BILIRUBIN [3]: 0.2 mg/dL | TOTAL PROTEIN [3]: 6.17 G/DL | URIC ACID [3]: 1.43 mg/dL | ABSOLUTE BASOPHIL [4]: 0 CELLS/uL | ABSOLUTE EOSINOPHIL [4]: 38.33 CELLS/uL | ABSOLUTE LYMPHOCYTE [4]: 13151.33 CELLS/uL | ABSOLUTE SEGMENTED NEUTROPHIL [4]: 736.67 CELLS/uL | BASOPHIL [4]: 0% | EOSINOPHIL [4]: 0.33% | ERYTHROCYTE COUNT [4]: 6.2 x10E6/uL | HEMATOCRIT [4]: 39.87% | LEUKOCYTE COUNT [4]: 14.1 x10E3/uL | LYMPHOCYTE [4]: 93.33% | MEAN CORPUSCULAR HEMOGLOBIN [4]: 24.13 pg | MEAN CORPUSCULAR HEMOGLOBIN CONCENTRATION [4]: 37.57 G/DL | MEAN CORPUSCULAR VOLUME [4]: 64.33 fL | MONOCYTE [4]: 1% | NEUTROPHIL [4]: 5.33% | NUCLEATED RED BLOOD CELLS [4]: 0 /100WBC | PLATELET COUNT [4]: 1362.67 x10E3/uL | ALANINE AMINOTRANSFERASE [4]: 51.67 u/L
